According to the NIST ThermoML archive (doi:10.1021/je034162x):
± gives the expanded uncertainty stated by the source.

Details: 101.33 kPa, Liquid, Hot wire method

C=CCCCCCC [oct-1-ene]
Details	thermal conductivity [W/m/K]	thermal diffusivity [m2/s]
259.69 K	0.1354 ± 0.0009	–
259.9 K	0.1353 ± 0.0009	–
260.06 K	0.1353 ± 0.0009	–
260.46 K	–	9.04e-08 ± 1.7e-09
261.02 K	–	9.07e-08 ± 1.7e-09
261.42 K	–	9.09e-08 ± 1.7e-09
279.34 K	0.1294 ± 0.00087	–
279.57 K	0.1294 ± 0.00087	–
279.72 K	0.129 ± 0.00089	–
280.08 K	–	8.39e-08 ± 1.6e-09
280.66 K	–	8.48e-08 ± 1.6e-09
281.06 K	–	8.49e-08 ± 1.6e-09
296.88 K	0.124 ± 0.00083	–
297.14 K	0.124 ± 0.00083	–
297.28 K	0.124 ± 0.00083	–
297.65 K	–	7.98e-08 ± 1.5e-09
298.28 K	–	8e-08 ± 1.5e-09
298.61 K	–	8.02e-08 ± 1.5e-09
315.82 K	0.1185 ± 0.0008	–
316.07 K	0.1186 ± 0.0008	–
316.24 K	0.1186 ± 0.0008	–
316.57 K	–	7.49e-08 ± 1.4e-09
317.19 K	–	7.58e-08 ± 1.4e-09
317.61 K	–	7.61e-08 ± 1.4e-09
326.44 K	0.1155 ± 0.00078	–
326.7 K	0.1156 ± 0.00078	–
326.87 K	0.1156 ± 0.00078	–
327.18 K	–	7.24e-08 ± 1.4e-09
327.82 K	–	7.35e-08 ± 1.4e-09
328.26 K	–	7.38e-08 ± 1.4e-09

CCCc1ccccc1 [propylbenzene]
Details	thermal conductivity [W/m/K]	thermal diffusivity [m2/s]
261.18 K	0.1358 ± 0.0009	–
261.4 K	0.1357 ± 0.0009	–
261.57 K	0.1356 ± 0.0009	–
262.04 K	–	9.04e-08 ± 1.7e-09
262.63 K	–	9.06e-08 ± 1.7e-09
263.06 K	–	9.06e-08 ± 1.7e-09
275.09 K	0.133 ± 0.00089	–
275.33 K	0.1328 ± 0.00089	–
275.5 K	0.1328 ± 0.00089	–
275.98 K	–	8.84e-08 ± 1.7e-09
276.61 K	–	8.87e-08 ± 1.7e-09
277.03 K	–	8.85e-08 ± 1.7e-09
294.17 K	0.1286 ± 0.00086	–
294.42 K	0.1285 ± 0.00086	–
294.6 K	0.1285 ± 0.00086	–
295.08 K	–	8.49e-08 ± 1.6e-09
295.74 K	–	8.53e-08 ± 1.6e-09
296.19 K	–	8.52e-08 ± 1.6e-09
312.54 K	0.1247 ± 0.00084	–
312.79 K	0.1246 ± 0.00084	–
312.97 K	0.1245 ± 0.00084	–
313.45 K	–	8.14e-08 ± 1.5e-09
314.1 K	–	8.16e-08 ± 1.5e-09
314.56 K	–	8.15e-08 ± 1.5e-09
329.54 K	0.1208 ± 0.00081	–
329.79 K	0.1207 ± 0.00081	–
329.98 K	0.1207 ± 0.00081	–
330.45 K	–	7.8e-08 ± 1.5e-09
331.09 K	–	7.79e-08 ± 1.5e-09
331.57 K	–	7.81e-08 ± 1.5e-09

[2H]c1c([2H])c([2H])c(C([2H])([2H])[2H])c([2H])c1[2H] [toluene-d8]
Details	thermal conductivity [W/m/K]	thermal diffusivity [m2/s]
259.69 K	0.1349 ± 0.0011	–
259.91 K	0.1348 ± 0.0011	–
260.06 K	0.1348 ± 0.0011	–
260.47 K	–	8.33e-08 ± 1.6e-09
261.03 K	–	8.36e-08 ± 1.6e-09
261.42 K	–	8.36e-08 ± 1.6e-09
279.35 K	0.1298 ± 0.001	–
279.57 K	0.1297 ± 0.001	–
279.73 K	0.1296 ± 0.001	–
280.14 K	–	7.9e-08 ± 1.5e-09
280.69 K	–	7.9e-08 ± 1.5e-09
281.08 K	–	7.88e-08 ± 1.5e-09
296.9 K	0.1251 ± 0.001	–
297.13 K	0.1249 ± 0.001	–
297.28 K	0.1249 ± 0.001	–
297.69 K	–	7.52e-08 ± 1.4e-09
298.25 K	–	7.51e-08 ± 1.4e-09
298.64 K	–	7.51e-08 ± 1.4e-09
315.84 K	0.12 ± 0.00096	–
316.08 K	0.1199 ± 0.00096	–
316.24 K	0.1198 ± 0.00096	–
316.65 K	–	7.15e-08 ± 1.4e-09
317.21 K	–	7.13e-08 ± 1.4e-09
317.61 K	–	7.11e-08 ± 1.4e-09
326.47 K	0.1173 ± 0.00094	–
326.7 K	0.1172 ± 0.00094	–
326.87 K	0.117 ± 0.00094	–
327.28 K	–	6.95e-08 ± 1.3e-09
327.85 K	–	6.93e-08 ± 1.3e-09
328.25 K	–	6.9e-08 ± 1.3e-09
